Measured values from patent US11760722B2 (priority 2022, dated 2023).
“And” between values parts separate entries of the source, which are not always exact repeats. Identical values can stand only once. Like-named read-outs stand apart in the source and are kept apart here.

Key:
SARS-CoV-2 replicon = assay: microbe, parasite or virus in culture; format: cell-based
[1] = test system: human coronavirus (HCoV) 229E; assay: microbe, parasite or virus in culture; format: cell-based, human coronavirus 229E
Procedure: Test compounds were provided by the sponsor. Reference compound remdesivir was provided by WuXi AppTec. Compounds were assayed at 8 concentrations (to be defined by sponsor), in duplicate wells.
MRCS cells were obtained from the ATCC, and maintained in the Minimum Essential Medium supplemented with 10% FBS, 1% L-glutamine, 1% NEAA and 1% penicillin-streptomycin. Minimum Essential Medium supplemented with 5% FBS, 1% L-glutamine, 1% NEAA and 1% penicillin-streptomycin was used as the assay medium.
Cells were seeded in 96 well plates, in 100 μl per well of assay medium, and cultured at 37° C. and 5% CO2 overnight. Next day, test compound was diluted with assay medium and then added into the cells, 50 μl per well. Then 50 μl per well of assay medium diluted virus was added. The final volume of the cell culture was 200 μl per well. […] The CPE were measured by CellTiter Glo following the manufacturer's manual. The antiviral activity of compounds was calculated based on the protection of the virus-induced CPE at each concentration normalized by the virus control.
EC50 and CC50 values were calculated using the GraphPad Prism software using the nonlinear regression model of log(inhibitor) vs. response—Variable slope (four parameters).

[2] = Severe acute respiratory syndrome coronavirus 2, Huh-7, 24 h; read-out: Replicon EC50
[3] = unidentified human coronavirus, 72 h, MRCS cells, HCoV 229E, 3 days, CellTiter Glo, read-out: 229E CPE EC50
[4] = MRCS cells, HCoV 229E, 3 days, CellTiter Glo, read-out: 229E CPE EC50

SMILES | EC50 (SARS-CoV-2 replicon; [2]) [µM] | EC50 [1, 3] [µM] | EC50 [1, 4] | further results
CC(C)(C)OC(=O)N[C@H](C(=O)N1C[C@H]2[C@@H]([C@H]1C(=O)N[C@H](C#N)C[C@@H]1CCNC1=O)C2(C)C)C(C)(C)C [Compound 12] |  |  |  | EC50 (SARS-CoV-2 replicon; Severe acute respiratory syndrome coronavirus 2, Huh-7, 24 h, read-out: Replicon EC50): 0.106 µM; EC50 (SARS-CoV-2 replicon; read-out: Replicon EC50): 0.119 µM; EC50 ([1]; unidentified human coronavirus, 72 h, read-out: 229E CPE EC50, MRCS cells, HCoV 229E, 3 days, CellTiter Glo): 0.849 µM
CC(C)(C)[C@H](NC(=O)NC1(CS(=O)(=O)C(C)(C)C)CCCCC1)C(=O)N1C[C@H]2[C@@H]([C@H]1C(=O)N[C@H](C#N)C[C@@H]1CCNC1=O)C2(C)C [Compound 16] | 1.29 | 16.8 |  | EC50 (SARS-CoV-2 replicon; read-out: Replicon EC50): 1.88 µM and 2.04 µM
CC(C)(C)[C@H](NC(=O)C(c1ccccc1)c1ccccc1)C(=O)N1C[C@H]2[C@@H]([C@H]1C(=O)N[C@H](C#N)C[C@@H]1CCNC1=O)C2(C)C [Compound 18, (1R,2S,5S)—N—((S)-1-cyano-2-((S)-2-oxopyrrolidin-3-yl)ethyl)-3-((S)-2-(2,2-diphenylacetamido)-3,3-dimethylbutanoyl)-6,6-dimethyl-3-azabicyclo[3.1.0]hexane-2-carboxamide] | 1.27 | 0.85 |  | EC50 (SARS-CoV-2 replicon; read-out: Replicon EC50): 1.41 µM
CC(C)(C)[C@H](NC(=O)C12CC(C1)C2)C(=O)N1C[C@H]2[C@@H]([C@H]1C(=O)N[C@H](C#N)C[C@@H]1CCNC1=O)C2(C)C [Compound 20] | 0.186 | 2.74 |  | EC50 (SARS-CoV-2 replicon; read-out: Replicon EC50): 0.232 µM
CC(C)(C)[C@H](NC(=O)[C@H]1CCO1)C(=O)N1C[C@H]2[C@@H]([C@H]1C(=O)N[C@H](C#N)C[C@@H]1CCNC1=O)C2(C)C [Compound 22] | 3 | 19.3 |  | 
Cn1c(C(=O)N[C@H](C(=O)N2C[C@H]3[C@@H]([C@H]2C(=O)N[C@H](C#N)C[C@@H]2CCNC2=O)C3(C)C)C(C)(C)C)cc2ccccc21 [Compound 27] | 0.964 | 0.963 |  | 
CC(C)(C)[C@H](NC(=O)c1cnc2[nH]ccc2c1)C(=O)N1C[C@H]2[C@@H]([C@H]1C(=O)N[C@H](C#N)C[C@@H]1CCNC1=O)C2(C)C [Compound 32] | 3.15 | 13.1 |  | 
CC(C)(C)[C@H](NC(=O)CC#N)C(=O)N1C[C@H]2[C@@H]([C@H]1C(=O)N[C@H](C#N)C[C@@H]1CCNC1=O)C2(C)C [Compound 33] |  | 17.8 | 18 µM | 
CC(C)(C)[C@H](NC(=O)C12CC(F)(C1)C2)C(=O)N1C[C@H]2[C@@H]([C@H]1C(=O)N[C@H](C#N)C[C@@H]1CCNC1=O)C2(C)C [Compound 34] | 0.27 | 0.534 |  | EC50 (SARS-CoV-2 replicon; read-out: Replicon EC50): 0.3 µM and 0.42 µM
CNC(=S)N[C@H](C(=O)N1C[C@H]2[C@@H]([C@H]1C(=O)N[C@H](C#N)C[C@@H]1CCNC1=O)C2(C)C)C(C)(C)C [Compound 35] |  | 4.96 |  | 
CC(C)(C)[C@H](NC(=O)CC12CC(C1)C2)C(=O)N1C[C@H]2[C@@H]([C@H]1C(=O)N[C@H](C#N)C[C@@H]1CCNC1=O)C2(C)C [Compound 40] | 0.27 | 3.12 | 3.26 µM | EC50 (SARS-CoV-2 replicon; read-out: Replicon EC50): 0.32 µM and 0.36 µM and 0.39 µM
CN(C)S(=O)(=O)N[C@H](C(=O)N1C[C@H]2[C@@H]([C@H]1C(=O)N[C@H](C#N)C[C@@H]1CCNC1=O)C2(C)C)C(C)(C)C [Compound 47, (1R,2S,5S)—N—((S)-1-cyano-2-((S)-2-oxopyrrolidin-3-yl)ethyl)-3-((S)-2-((N,N-dimethylsulfamoyl)amino)-3,3-dimethylbutanoyl)-6,6-dimethyl-3-azabicyclo[3.1.0]hexane-2-carboxamide] |  | 6.19 | 7.32 µM | 
CC(C)(C)[C@H](NS(=O)(=O)N1CCOCC1)C(=O)N1C[C@H]2[C@@H]([C@H]1C(=O)N[C@H](C#N)C[C@@H]1CCNC1=O)C2(C)C [Compound 49] |  | 3.88 | 5.78 µM | 
C=C(F)C(=O)N[C@H](C(=O)N1C[C@H]2[C@@H]([C@H]1C(=O)N[C@H](C#N)C[C@@H]1CCNC1=O)C2(C)C)C(C)(C)C [Compound 66] |  | 1.08 | 1.4 µM | 
CC(C)(C)[C@H](NC(=O)C(Cl)(Cl)C(F)(F)F)C(=O)N1C[C@H]2[C@@H]([C@H]1C(=O)N[C@H](C#N)C[C@@H]1CCNC1=O)C2(C)C [Compound 71] |  | 0.302 | 0.321 µM | 
CCNC(=S)N[C@H](C(=O)N1C[C@H]2[C@@H]([C@H]1C(=O)N[C@H](C#N)C[C@@H]1CCNC1=O)C2(C)C)C(C)(C)C [Compound 72] |  | 0.718 | 0.89 µM | 
CC(C)(C)[C@H](NC(=O)Cc1ccc2c(c1)CCC2)C(=O)N1C[C@H]2[C@@H]([C@H]1C(=O)N[C@H](C#N)C[C@@H]1CCNC1=O)C2(C)C [Compound 82] |  | 0.449 | 0.515 µM | 
CC(C)(C)[C@H](NS(=O)(=O)c1cccc2ccccc12)C(=O)N1C[C@H]2[C@@H]([C@H]1C(=O)N[C@H](C#N)C[C@@H]1CCNC1=O)C2(C)C [Compound 85] |  | 0.238 | 0.368 µM | 
CC(C)(C)[C@H](NS(=O)(=O)c1cccnc1)C(=O)N1C[C@H]2[C@@H]([C@H]1C(=O)N[C@H](C#N)C[C@@H]1CCNC1=O)C2(C)C [Compound 93] |  | 3.06 | 4.38 µM | 
Cc1ccc(S(=O)(=O)N[C@H](C(=O)N2C[C@H]3[C@@H]([C@H]2C(=O)N[C@H](C#N)C[C@@H]2CCNC2=O)C3(C)C)C(C)(C)C)cc1 [Compound 96] |  | 0.246 | 0.339 µM | 

SMILES | EC50 (SARS-CoV-2 replicon; [2]) [µM] | EC50 [1, 3] [µM] | EC50 [1, 4] | further results
CC(C)(C)[C@H](NS(=O)(=O)c1cccs1)C(=O)N1C[C@H]2[C@@H]([C@H]1C(=O)N[C@H](C#N)C[C@@H]1CCNC1=O)C2(C)C [Compound 100] |  | 0.432 | 0.636 µM | 
CC(C)(C)[C@H](NS(=O)(=O)c1ccc2ccccc2c1)C(=O)N1C[C@H]2[C@@H]([C@H]1C(=O)N[C@H](C#N)C[C@@H]1CCNC1=O)C2(C)C [Compound 102] |  | 0.084 | 0.125 µM | 
CC(C)(C)[C@H](NS(=O)(=O)c1ccc(F)s1)C(=O)N1C[C@H]2[C@@H]([C@H]1C(=O)N[C@H](C#N)C[C@@H]1CCNC1=O)C2(C)C [Compound 113] |  | 0.388 |  | 
CC(C)(C)[C@H](NS(=O)(=O)c1sccc1Cl)C(=O)N1C[C@H]2[C@@H]([C@H]1C(=O)N[C@H](C#N)C[C@@H]1CCNC1=O)C2(C)C [Compound 114] |  | 0.067 | 0.133 µM | 
Cc1ccc(S(=O)(=O)N[C@H](C(=O)N2C[C@H]3[C@@H]([C@H]2C(=O)N[C@H](C#N)C[C@@H]2CCNC2=O)C3(C)C)C(C)(C)C)s1 [Compound 118] |  | 0.322 |  | 
CC(C)(C)[C@H](NS(=O)(=O)c1ccc(C2CC2)cc1)C(=O)N1C[C@H]2[C@@H]([C@H]1C(=O)N[C@H](C#N)C[C@@H]1CCNC1=O)C2(C)C [Compound 121] |  | 0.056 | 0.066 µM | 
COc1ccsc1S(=O)(=O)N[C@H](C(=O)N1C[C@H]2[C@@H]([C@H]1C(=O)N[C@H](C#N)C[C@@H]1CCNC1=O)C2(C)C)C(C)(C)C [Compound 127] |  | 0.711 |  | 
CC(C)(C)[C@H](NC(=O)C(F)(F)C(F)(F)C(F)(F)F)C(=O)N1C[C@H]2[C@@H]([C@H]1C(=O)N[C@H](C#N)C[C@@H]1CCNC1=O)C2(C)C [Compound 133] |  | 0.122 | 0.16 µM and 0.164 µM | 
COc1ccc(S(=O)(=O)N(C)[C@H](C(=O)N2C[C@H]3[C@@H]([C@H]2C(=O)N[C@H](C#N)C[C@@H]2CCNC2=O)C3(C)C)C(C)(C)C)cc1 [Compound 137] |  | 4.84 |  | 
CC(C)(C)[C@H](NC(=O)c1cccc(S(F)(F)(F)(F)F)c1)C(=O)N1C[C@H]2[C@@H]([C@H]1C(=O)N[C@H](C#N)C[C@@H]1CCNC1=O)C2(C)C [Compound 145] | 3.96 |  |  | EC50 (SARS-CoV-2 replicon; read-out: Replicon EC50): 4 µM
CC(C)(C)[C@H](NC(=O)C(F)(F)C(F)(F)C(F)(F)C(F)(F)F)C(=O)N1C[C@H]2[C@@H]([C@H]1C(=O)N[C@H](C#N)C[C@@H]1CCNC1=O)C2(C)C [Compound 146] | 0.08 |  |  | EC50 (SARS-CoV-2 replicon; read-out: Replicon EC50): 0.085 µM
CC(C)(C)[C@H](NC(=O)c1ccc(S(F)(F)(F)(F)F)cc1)C(=O)N1C[C@H]2[C@@H]([C@H]1C(=O)N[C@H](C#N)C[C@@H]1CCNC1=O)C2(C)C [Compound 147] | > 10 |  |  | 
Cc1c(S(=O)(=O)N[C@H](C(=O)N2C[C@H]3[C@@H]([C@H]2C(=O)N[C@H](C#N)C[C@@H]2CCNC2=O)C3(C)C)C(C)(C)C)sc2ccc(F)cc12 [Compound 148] | 0.016 |  |  | 
CC(C)(C)[C@H](NC(=O)CC(C(F)(F)F)C(F)(F)F)C(=O)N1C[C@H]2[C@@H]([C@H]1C(=O)N[C@H](C#N)C[C@@H]1CCNC1=O)C2(C)C [Compound 149] | 0.24 |  |  | 
CN([C@H](C(=O)N1C[C@H]2[C@@H]([C@H]1C(=O)N[C@H](C#N)C[C@@H]1CCNC1=O)C2(C)C)C(C)(C)C)S(=O)(=O)c1ccc2ccccc2c1 [Compound 150] | 2.91 |  |  | 
Cc1cc(C)c(S(=O)(=O)N[C@H](C(=O)N2C[C@H]3[C@@H]([C@H]2C(=O)N[C@H](C#N)C[C@@H]2CCNC2=O)C3(C)C)C(C)(C)C)c(C)c1 [Compound 152] | 0.065 |  |  | 
CCN([C@H](C(=O)N1C[C@H]2[C@@H]([C@H]1C(=O)N[C@H](C#N)C[C@@H]1CCNC1=O)C2(C)C)C(C)(C)C)S(=O)(=O)c1ccc(OC)cc1 [Compound 153] | 2.11 |  |  | 
CN([C@H](C(=O)N1C[C@H]2[C@@H]([C@H]1C(=O)N[C@H](C#N)C[C@@H]1CCNC1=O)C2(C)C)C(C)(C)C)S(=O)(=O)c1ccc(Cl)s1 [Compound 155] | > 10 |  |  | 
CN([C@H](C(=O)N1C[C@H]2[C@@H]([C@H]1C(=O)N[C@H](C#N)C[C@@H]1CCNC1=O)C2(C)C)C(C)(C)C)S(=O)(=O)c1cccc2ccccc12 [Compound 156] | 1.4 |  |  | 
CCCc1ccc(S(=O)(=O)N[C@H](C(=O)N2C[C@H]3[C@@H]([C@H]2C(=O)N[C@H](C#N)C[C@@H]2CCNC2=O)C3(C)C)C(C)(C)C)s1 [Compound 171] | 0.029 |  |  | 
